Test results: ChEMBL document CHEMBL1201862, “PubChem BioAssay data set” (2004)
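Exposure lasted 48 hours, with cells grown in 96-well plates and compounds tested at five concentrations. GI50 marks 50% less growth.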 The source made the active and inactive calls. Rule as the data show it: active = GI50 up to about 1.1 µM and inactive = higher.

How the values were obtained:
Assay in all cases: NCI-60 cell line screen, 48 h
LOX IMVI = tested on: LOX IMVI
MDA-N = tested on: MDA-N
MCF7 = tested on: MCF7
SK-MEL-28 = tested on: SK-MEL-28
HT-29 = tested on: HT-29
IGROV-1 = tested on: IGROV-1
A549 = tested on: A549
PC-3 = tested on: PC-3
RXF 393 = tested on: RXF 393
BT-549 = tested on: BT-549
UACC-62 = tested on: UACC-62
OVCAR-8 = tested on: OVCAR-8
SK-MEL-5 = tested on: SK-MEL-5
SR = tested on: SR
HCT-116 = tested on: HCT-116
MOLT-4 = tested on: MOLT-4
NCI-H23 = tested on: NCI-H23
UO-31 = tested on: UO-31
NCI/ADR-RES = tested on: NCI/ADR-RES
A498 = tested on: A498
HOP-62 = tested on: HOP-62
SF-268 = tested on: SF-268
SF-295 = tested on: SF-295
HCC 2998 = tested on: HCC 2998
CCRF-CEM = tested on: CCRF-CEM
OVCAR-5 = tested on: OVCAR-5
U-251 = tested on: U-251
SW-620 = tested on: SW-620
CAKI-1 = tested on: CAKI-1
SK-MEL-2 = tested on: SK-MEL-2
M14 = tested on: M14
SN12C = tested on: SN12C
OVCAR-4 = tested on: OVCAR-4
786-0 = tested on: 786-0
Hs-578T = tested on: Hs-578T
NCI-H522 = tested on: NCI-H522
K562 = tested on: K562
HCT-15 = tested on: HCT-15
HL-60 = tested on: HL-60
ACHN = tested on: ACHN
EKVX = tested on: EKVX
RPMI-8226 = tested on: RPMI-8226
NCI-H226 = tested on: NCI-H226
MDA-MB-435 = tested on: MDA-MB-435
SNB-19 = tested on: SNB-19
UACC-257 = tested on: UACC-257
SF-539 = tested on: SF-539
TK-10 = tested on: TK-10
OVCAR-3 = tested on: OVCAR-3
MDA-MB-231 = tested on: MDA-MB-231
SNB-75 = tested on: SNB-75
SK-OV-3 = tested on: SK-OV-3
KM12 = tested on: KM12
HOP-92 = tested on: HOP-92
NCI-H460 = tested on: NCI-H460
Malme-3M = tested on: Malme-3M
DU-145 = tested on: DU-145
COLO 205 = tested on: COLO 205

Structure (SMILES): O=C1C(F)=CC(COC(c2ccccc2)(c2ccccc2)c2ccccc2)OC1n1cc(F)c(=O)[nH]c1=O (stereo unspecified)
- GI50 (LOX IMVI): 0.533 µM (active)
- GI50 (MDA-N): 1.11 µM (active)
- GI50 (MCF7): 2.07 µM (inactive)
- GI50 (SK-MEL-28): 1.62 µM (inactive)
- GI50 (HT-29): 0.412 µM (active)
- GI50 (IGROV-1): 1.46 µM (inactive)
- GI50 (A549): 2.18 µM (inactive)
- GI50 (PC-3): 1.71 µM (inactive)
- GI50 (RXF 393): 1.96 µM (inactive)
- GI50 (BT-549): 1.71 µM (inactive)
- GI50 (UACC-62): 1.61 µM (inactive)
- GI50 (OVCAR-8): 1.87 µM (inactive)
- GI50 (SK-MEL-5): 1.35 µM (inactive)
- GI50 (SR): 6.18 µM (inactive)
- GI50 (HCT-116): 2.77 µM (inactive)
- GI50 (MOLT-4): 0.8 µM (active)
- GI50 (NCI-H23): 1.77 µM (inactive)
- GI50 (UO-31): 2.2 µM (inactive)
- GI50 (NCI/ADR-RES): 2.04 µM (inactive)
- GI50 (A498): 8.79 µM (inactive)
- GI50 (HOP-62): 3.18 µM (inactive)
- GI50 (SF-268): 2.9 µM (inactive)
- GI50 (SF-295): 2.2 µM (inactive)
- GI50 (HCC 2998): 3.54 µM (inactive)
- GI50 (CCRF-CEM): 0.319 µM (active)
- GI50 (OVCAR-5): 2.14 µM (inactive)
- GI50 (U-251): 1.36 µM (inactive)
- GI50 (SW-620): 0.723 µM (active)
- GI50 (CAKI-1): 2.49 µM (inactive)
- GI50 (SK-MEL-2): 2.91 µM (inactive)
- GI50 (M14): 1.83 µM (inactive)
- GI50 (SN12C): 1.75 µM (inactive)
- GI50 (OVCAR-4): 3.99 µM (inactive)
- GI50 (786-0): 1.97 µM (inactive)
- GI50 (Hs-578T): 4.24 µM (inactive)
- GI50 (NCI-H522): 1.61 µM (inactive)
- GI50 (K562): 0.278 µM (active)
- GI50 (HCT-15): 1.67 µM
- GI50 (HL-60): 0.592 µM (active)
- GI50 (ACHN): 1.64 µM (inactive)
- GI50 (EKVX): 7.89 µM (inactive)
- GI50 (RPMI-8226): 0.413 µM (active)
- GI50 (NCI-H226): 1.83 µM (inactive)
- GI50 (MDA-MB-435): 0.746 µM (active)
- GI50 (SNB-19): 5.09 µM (inactive)
- GI50 (UACC-257): 1.96 µM (inactive)
- GI50 (SF-539): 1.94 µM (inactive)
- GI50 (TK-10): 1.34 µM (inactive)
- GI50 (OVCAR-3): 1.48 µM (inactive)
- GI50 (MDA-MB-231): 3.26 µM (inactive)
- GI50 (SNB-75): 2.58 µM (inactive)
- GI50 (SK-OV-3): 7.05 µM (inactive)
- GI50 (KM12): 1.91 µM (inactive)
- GI50 (HOP-92): 2.11 µM (inactive)
- GI50 (NCI-H460): 2.62 µM (inactive)
- GI50 (Malme-3M): 3.33 µM (inactive)

Structure (SMILES): COc1ccc([C@H]2[C@H](C)C3=Nc4ccccc4CN32)cc1
- GI50 (LOX IMVI): 39.8 µM (inactive)
- GI50 (MDA-N): 20.7 µM (inactive)
- GI50 (MCF7): 59.7 µM (inactive)
- GI50 (SK-MEL-28): 33.2 µM (inactive)
- GI50 (HT-29): 35.8 µM (inactive)
- GI50 (IGROV-1): 63.7 µM (inactive)
- GI50 (A549): 55.1 µM (inactive)
- GI50 (PC-3): > 100 µM (inactive)
- GI50 (DU-145): > 100 µM (inactive)
- GI50 (RXF 393): > 100 µM (inactive)
- GI50 (BT-549): > 100 µM (inactive)
- GI50 (UACC-62): 57.5 µM (inactive)
- GI50 (OVCAR-8): 71.8 µM (inactive)
- GI50 (SK-MEL-5): 40.8 µM (inactive)
- GI50 (SR): 36.8 µM (inactive)
- GI50 (HCT-116): 33.8 µM (inactive)
- GI50 (MOLT-4): 36.8 µM (inactive)
- GI50 (NCI-H23): 69.8 µM (inactive)
- GI50 (UO-31): > 100 µM (inactive)
- GI50 (NCI/ADR-RES): > 100 µM (inactive)
- GI50 (A498): > 100 µM (inactive)
- GI50 (HOP-62): > 100 µM (inactive)
- GI50 (SF-268): 98.9 µM (inactive)
- GI50 (SF-295): 49.4 µM (inactive)
- GI50 (COLO 205): 45.1 µM (inactive)
- GI50 (HCC 2998): 41.9 µM (inactive)
- GI50 (OVCAR-5): > 100 µM (inactive)
- GI50 (U-251): 51.5 µM (inactive)
- GI50 (SW-620): 39.9 µM (inactive)
- GI50 (CAKI-1): > 100 µM (inactive)
- GI50 (SK-MEL-2): > 100 µM (inactive)
- GI50 (M14): 42.6 µM (inactive)
- GI50 (SN12C): 63 µM (inactive)
- GI50 (OVCAR-4): > 100 µM (inactive)
- GI50 (786-0): 54.1 µM (inactive)
- GI50 (Hs-578T): > 100 µM (inactive)
- GI50 (NCI-H522): > 100 µM (inactive)
- GI50 (K562): 39.2 µM (inactive)
- GI50 (HCT-15): 76.2 µM
- GI50 (HL-60): 29.9 µM (inactive)
- GI50 (ACHN): 86.9 µM (inactive)
- GI50 (EKVX): 96.8 µM (inactive)
- GI50 (RPMI-8226): 33.7 µM (inactive)
- GI50 (NCI-H226): 85.1 µM (inactive)
- GI50 (MDA-MB-435): 31.4 µM (inactive)
- GI50 (SNB-19): > 100 µM (inactive)
- GI50 (UACC-257): > 100 µM (inactive)
- GI50 (SF-539): 39.3 µM (inactive)
- GI50 (TK-10): > 100 µM (inactive)
- GI50 (OVCAR-3): > 100 µM (inactive)
- GI50 (MDA-MB-231): > 100 µM (inactive)
- GI50 (KM12): 42.6 µM (inactive)
- GI50 (HOP-92): 56.5 µM (inactive)
- GI50 (NCI-H460): 31.6 µM (inactive)
- GI50 (Malme-3M): > 100 µM (inactive)
